Results as given in the NIST ThermoML archive (doi:10.1021/je900182h).
Values joined by “and” are separate entries in the source; they are usually repeats but may differ in a detail not shown here. Equal values may be shown once.

Conditions: Crystal

[Br][Ga]([Br])[Br] [gallium bromide]
Conditions	vapor or sublimation pressure
300 K	7.08e-05 kPa
302.5 K	6.31e-05 kPa and 9.55e-05 kPa
303 K	4.79e-05 kPa
304 K	7.24e-05 kPa
304.5 K	8.51e-05 kPa
305 K	7.24e-05 kPa
306.5 K	9.77e-05 kPa
307 K	0.000141 kPa and 9.77e-05 kPa
307.5 K	0.000126 kPa and 9.55e-05 kPa
308 K	0.000126 kPa
309.5 K	0.000145 kPa
310 K	0.00017 kPa and 0.000123 kPa
310.5 K	0.000141 kPa
311 K	0.00024 kPa
311.7 K	0.000263 kPa
312 K	0.000214 kPa
312.5 K	0.00017 kPa
313 K	0.000257 kPa [middle of 4 runs]
313.5 K	0.000219 kPa
314 K	0.00038 kPa
314.5 K	0.000339 kPa and 0.000219 kPa
315 K	0.000339 kPa [middle of 4 runs]
315.5 K	0.000263 kPa
316 K	0.00038 kPa and 0.000245 kPa
316.5 K	0.000288 kPa
317 K	0.000331 kPa and 0.000295 kPa
317.5 K	0.000525 kPa and 0.000339 kPa
318 K	0.00055 kPa
318.5 K	0.000513 kPa and 0.000339 kPa
319.5 K	0.000589 kPa [middle of 4 runs]
320 K	0.000617 kPa and 0.000363 kPa
321 K	0.000851 kPa and 0.000759 kPa
321.5 K	0.000575 kPa
322 K	0.000759 kPa and 0.000912 kPa and 0.000525 kPa
322.5 K	0.000891 kPa and 0.000589 kPa
323 K	0.0011 kPa and 0.000977 kPa and 0.000661 kPa
323.5 K	0.000724 kPa
324 K	0.0011 kPa [middle of 4 runs]
324.5 K	0.000708 kPa
325 K	0.00141 kPa and 0.000724 kPa
325.5 K	0.000813 kPa
326 K	0.00141 kPa and 0.000832 kPa
326.5 K	0.000955 kPa and 0.000832 kPa
327 K	0.00117 kPa and 0.000977 kPa
327.5 K	0.00151 kPa [middle of 4 runs]
328 K	0.00191 kPa and 0.00105 kPa
328.5 K	0.00178 kPa and 0.000977 kPa
329.5 K	0.00148 kPa and 0.00123 kPa
330 K	0.00251 kPa and 0.00141 kPa and 0.00158 kPa
331 K	0.00263 kPa and 0.00257 kPa
331.5 K	0.00204 kPa
332 K	0.00324 kPa and 0.00191 kPa
332.5 K	0.00174 kPa
333 K	0.00214 kPa [middle of 4 runs]
333.5 K	0.00331 kPa and 0.00204 kPa
334 K	0.00398 kPa and 0.00234 kPa
335 K	0.00437 kPa and 0.00417 kPa and 0.00191 kPa
335.5 K	0.00263 kPa
336 K	0.00324 kPa [middle of 4 runs]
337 K	0.00339 kPa
338 K	0.0055 kPa and 0.00363 kPa and 0.00309 kPa
339.5 K	0.00525 kPa
340 K	0.00407 kPa and 0.00427 kPa and 0.00437 kPa
340.5 K	0.00437 kPa
341 K	0.00759 kPa and 0.00427 kPa
342 K	0.00501 kPa
343 K	0.00759 kPa and 0.00589 kPa
343.5 K	0.00603 kPa
344 K	0.00617 kPa
344.5 K	0.00708 kPa
345 K	0.00661 kPa and 0.00676 kPa
346 K	0.00794 kPa [middle of 4 runs]
346.5 K	0.00871 kPa
347 K	0.0135 kPa
348 K	0.00871 kPa and 0.00955 kPa
349 K	0.01 kPa and 0.012 kPa and 0.0105 kPa
350.5 K	0.0115 kPa
351 K	0.0186 kPa and 0.0117 kPa
352 K	0.0145 kPa
354.5 K	0.0174 kPa
357 K	0.0195 kPa
